This experiment deals with soluble human BACE1 catalytic domain (Homo sapiens (Human), UniProt P56817). The experiment can be described thus: BACE1 HTRF FRET Assay.
The mark [1] stands for this setting: read-out: BACE1 Ki, Ki calculated from IC50 using the Cheng-Prusoff equation.
Setting [2] is: read-out: BACE1 % Inh. at 10 μM, at 10 μM.

This passage reports Ki and inhibition results from US9499502B2, “5-substituted iminothiazines and their mono- and dioxides as BACE inhibitors, compositions, and their use” (Merck Sharp & Dohme Corp., priority 2011, dated 2016).

pKi: −log10 of the molar value. Like-named read-outs stand apart in the source and are kept apart here.

Chain of soluble human BACE1 catalytic domain (P56817 75-416): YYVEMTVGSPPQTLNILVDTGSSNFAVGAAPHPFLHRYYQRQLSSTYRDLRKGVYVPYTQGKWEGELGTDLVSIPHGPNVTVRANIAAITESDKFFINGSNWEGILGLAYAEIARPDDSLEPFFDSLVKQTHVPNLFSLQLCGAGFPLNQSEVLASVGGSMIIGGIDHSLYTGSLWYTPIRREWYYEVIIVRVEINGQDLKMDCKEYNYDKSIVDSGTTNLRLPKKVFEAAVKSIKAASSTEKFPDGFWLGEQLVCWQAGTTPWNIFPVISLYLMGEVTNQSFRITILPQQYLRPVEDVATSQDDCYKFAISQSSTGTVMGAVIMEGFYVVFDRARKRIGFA

`CC1(C)C(=N)N[C@](C)(c2sc(-c3cccc(OC(F)F)c3)cc2Cl)CS1(=O)=O` [Example 27o]: the pKi (read-out: BACE1 Ki) is 7.18.

Take `C[C@@]1(c2cc(NC(=O)c3ccc(Cl)cn3)ccc2F)CS(=O)(=O)[C@@](C)(c2ccccn2)C(=N)N1` [Example 9cw-a]: the negative-log Ki (pKi) under setting [1] is 8.36.

`CC1(C)C(=N)N[C@](C)(c2sc(C(=O)NCc3cnsn3)cc2Cl)CS1(=O)=O` [Example 22r]: the pKi under setting [1] is 6.73.

`CC1(C)C(=N)N[C@](C)(c2sc(C(=O)NCc3ncccn3)cc2Cl)CS1(=O)=O` [Example 22b]: the pKi under setting [1] was 5.45.

As to `CC1(C)C(=N)N[C@](C)(c2sc(C(=O)NCc3cccc(F)c3)cc2Cl)CS1(=O)=O` [Example 22i], under setting [1], the negative-log Ki (pKi) was 5.94.

As to `CC1(C)C(=N)N[C@](C)(c2nc3ccc(-c4cccnc4)cc3s2)CS1(=O)=O` [Example 29a], the pKi (read-out: BACE1 Ki) is 5.47.

As for `CC1(C)C(=N)N[C@](C)(c2sc(-c3ccc4nncn4c3)cc2Cl)CS1(=O)=O` [Example 27p], where the note is “read-out: BACE1 Ki”, the pKi is 5.60.

Consider `CC1(C)C(=N)N[C@](C)(c2sc(-c3ccn4ncnc4c3)cc2Cl)CS1(=O)=O` [Example 27n], for which, under “read-out: BACE1 Ki”, the pKi was 6.56.

As to `COc1cccc(-c2ccc3nc([C@]4(C)CS(=O)(=O)C(C)(C)C(=N)N4)sc3c2)c1` [Example 29d], the pKi (read-out: BACE1 Ki) is 5.55.

In the case of `COc1cncc(-c2cc(F)c([C@]3(C)CS(=O)(=O)C(C)(CC(F)(F)F)C(=N)N3)s2)c1` (stereo partly drawn) [Example 27bn-a], the negative logarithm of the Ki (pKi) (read-out: BACE1 Ki) is 5.10.

For the molecule `CC1(C)C(=N)N[C@](C)(c2sc(C(=O)NCc3ccc4cnccc4c3)cc2Cl)CS1(=O)=O` [Example 22d], the pKi under setting [1] is 5.33.

Take `CC(=O)Nc1cc(F)c(F)c([C@]2(C)CS(=O)(=O)C(C)(C)C(=N)N2)c1` [Example 9bn]: the pKi under setting [1] is 5.99.

Take `Cc1cnc(C(=O)Nc2ccc(F)c([C@]3(C)CS(=O)(=O)C(C)(C)C(=N)N3)c2)cn1` [Example 9ak]: the pKi under setting [1] was 7.59.

As for `C[C@]1(CC2CC2)C(=N)N[C@](C)(c2cc(N)ccc2F)CS1(=O)=O` [Entry 47], the pKi (read-out: BACE1 inhibition, Ki) is 5.74.

Turning to `CC1(C)C(=N)N[C@](C)(c2nc(-c3ccc(C#N)s3)ccc2F)CS1(=O)=O` [Example 16c], the pKi under setting [1] was 5.45.

As for `C[C@@]1(c2ccc(F)cc2F)CS(=O)(=O)[C@@](C)(c2cccc(OCC3CC3)c2)C(=N)N1` [Example 34b], the negative-log Ki (pKi) (read-out: BACE1 Ki) is 5.95.

Consider `COc1cc(-c2cc(Cl)c([C@]3(C)CS(=O)(=O)C(C)(C)C(=N)N3)s2)ccn1` [Example 27k], for which the pKi (read-out: BACE1 Ki) is 6.03.

With `COCC1(COC)C(=N)N[C@](C)(c2sc(-c3cccc(C#N)c3)cc2Cl)CS1(=O)=O` [Example 27bt], under “read-out: BACE1 Ki”, the pKi is 6.87.

Regarding `CC[C@@]1(C)C(=N)N[C@](C)(c2cc(NC(=O)c3ccc(F)cn3)ccc2F)CS1(=O)=O` [Example 9cl-a], under setting [1], the pKi was 8.23.

Regarding `C[C@@]1(c2cc(N)ccc2F)CS(=O)(=O)[C@@](C)(c2ccccn2)C(=N)N1` [Entry 76], the pKi (read-out: BACE1 inhibition, Ki) is 5.18.

For `CC1(C)C(=N)N[C@](C)(c2cc(Br)cs2)CS1(=O)=O` [Example 6C-1], the pKi (read-out: BACE1 inhibition, Ki) is 5.33.

For the molecule `CC1(C)C(=N)N[C@](C)(c2cc(NC(=O)c3ccc(F)cn3)cc(F)c2F)CS1(=O)=O` [Example 9k], under setting [1], the pKi was 8.01.

Regarding `CC1(C)C(=N)N[C@](C)(c2sc(C(=O)NCc3ncccc3Cl)cc2Cl)CS1(=O)=O` [Example 22a], the pKi under setting [1] is 5.85.

In the case of `COc1ccc(C(=O)Nc2ccc(F)c([C@]3(C)CS(=O)(=O)[C@@](C)(CC4CC4)C(=N)N3)c2)nc1` [Example 9dj-a], the pKi under setting [1] was 8.37.

As for `COc1cnc(C(=O)Nc2ccc(F)c([C@]3(C)CS(=O)(=O)[C@@](C)(c4ccc(F)cc4)C(=N)N3)c2)cn1` [Example 9dg-a], the negative logarithm of the Ki (pKi) under setting [1] was 8.35.

For `C[C@@]1(c2sc(-c3cccc(C#N)c3)cc2F)CS(=O)(=O)[C@@](C)(c2ccccn2)C(=N)N1` [Example 27bo-a], where the note is “read-out: BACE1 Ki”, the pKi is 6.88.

Turning to `CC1(C)C(=N)N[C@](C)(c2nc(-c3cncc(C#N)c3)ccc2F)CS1(=O)=O` [Example 16d], the inhibition at 10 µM under setting [2] was found to be 29%.

For `CC1(C)C(=N)N[C@](C)(c2cc(-c3cccc(-c4nnco4)c3)cs2)CS1(=O)=O` [Example 27ah], the pKi (read-out: BACE1 Ki) was 7.38.

Take `COc1cccc(C[C@]2(C)C(=N)N[C@](C)(c3ccc(F)cc3F)CS2(=O)=O)c1` [Example 32i-b]: the pKi (read-out: BACE1 Ki) was 5.42.

For `C[C@]1(CC(F)(F)F)C(=N)N[C@](C)(c2sc(-c3nnc(-c4ccc(Cl)cc4)o3)cc2F)CS1(=O)=O` [Example 27by-a], where the note is “read-out: BACE1 Ki”, the pKi is 7.53.

On to `CC1(C)C(=N)N[C@](C)(c2sc(-c3nnc(-c4ccc(C#N)cc4)o3)cc2Cl)CS1(=O)=O` [Example 27be], for which the pKi under setting [1] is 7.31.

For `C[C@@]1(c2ccc(F)cc2F)CS(=O)(=O)[C@](C)(Cc2cccc(Br)c2)C(=N)N1` [Example 32j-b], where the note is “read-out: BACE1 Ki”, the pKi was 5.90.

Turning to `COCC1(COC)C(=N)N[C@](C)(c2sc(-c3cc4cccc(OC)c4[nH]3)cc2Cl)CS1(=O)=O` [Example 27bv], where the note is “read-out: BACE1 Ki”, the pKi is 7.10.

Turning to `COc1cccc2nc(-c3cc(Cl)c([C@]4(C)CS(=O)(=O)C(C)(C)C(=N)N4)s3)cn12` [Example 28c], the pKi (read-out: BACE1 Ki) was 6.97.

For the molecule `C[C@@]1(c2cc(N)ccc2F)CS(=O)(=O)[C@@](C)(c2cc(C(F)(F)F)ccn2)C(=N)N1` [Entry 73], the pKi (read-out: BACE1 inhibition, Ki) is 5.34.

For the molecule `CC1(C)C(=N)N[C@](C)(c2sc(-c3cccc(-c4cnco4)c3)cc2Cl)CS1(=O)=O` [Example 27c], the pKi under setting [1] is 7.89.

With `Cc1noc(CC(=O)Nc2ccc(F)c([C@]3(C)CS(=O)(=O)C(C)(C)C(=N)N3)c2)n1` [Example 9ao], the pKi under setting [1] was 5.49.

In the case of `C[C@@]1(c2sc(-c3nnc(-c4ccc(Cl)cc4)o3)cc2F)CS(=O)(=O)[C@](C)(CC(F)(F)F)C(=N)N1` [Example 27by-b], for the setting “read-out: BACE1 Ki”, the pKi was 6.35.

As for `CC1(c2nc(C#Cc3ccc(F)cc3)ccc2F)CS(=O)(=O)C(C)(C)C(=N)N1` (stereo not drawn) [Example 31a], the inhibition at 10 µM (read-out: BACE1 inhibition, % Inh. at 10 μM, at 10 μM) came out at 41%.

For the molecule `COc1cnc(C(=O)Nc2ccc(F)c([C@]3(C)CS(=O)(=O)[C@@](C)(c4cccc(F)c4)C(=N)N3)c2)cn1` [Example 9dd-a], the pKi under setting [1] is 8.41.

As for `C[C@@]1(c2sc(-c3cccc(-c4nnco4)c3)cc2F)CS(=O)(=O)[C@](C)(CC(F)(F)F)C(=N)N1` [Example 27bk-b], the pKi (read-out: BACE1 Ki) was 6.98.

For `C[C@@]1(c2ccc(F)cc2F)CS(=O)(=O)[C@@](C)(c2cccc(OCc3ccccc3)c2)C(=N)N1` [Example 34a], where the note is “read-out: BACE1 Ki”, the pKi was 5.66.

On to `CC1(C)C(=N)N[C@](C)(c2nc(NC(=O)c3ccncn3)ccc2F)CS1(=O)=O` [Example 9ch], for which, under setting [1], the pKi was 7.00.

For `C[C@@]1(c2cc(NC(=O)c3ccc(F)cn3)ccc2F)CS(=O)(=O)[C@@](C)(c2ccc(F)cc2)C(=N)N1` [Example 9df-a], under setting [1], the pKi is 8.64.

As to `CC1(C)C(=N)N[C@](C)(c2cc(NC(=O)c3ccc(C(F)(F)F)cn3)ccc2F)CS1(=O)=O` [Example 6], the pKi under setting [1] is 9.15.

Regarding `CC1(C)C(=N)N[C@](C)(c2cc(NC(=O)c3cnc(C(F)F)cn3)cc(F)c2F)CS1(=O)=O` [Example 9r], the negative logarithm of the Ki (pKi) under setting [1] was 8.28.

In the case of `COCC1(COC)C(=N)N[C@](C)(c2sc(-c3cccc(-c4nnco4)c3)cc2Cl)CS1(=O)=O` [Example 27bu], the pKi (read-out: BACE1 Ki) is 5.93.

With `C[C@@]1(c2cc(NC(=O)c3ccc(C(F)(F)F)cn3)ccc2F)CS(=O)(=O)[C@@](C)(c2cccc(F)c2)C(=N)N1` [Example 9de-a], the pKi under setting [1] is 8.46.

For `CC1(C)C(=N)N[C@](C)(c2cc(NC(=O)c3cnc(C(F)F)cn3)ccc2F)CS1(=O)=O` [Example 9q], the pKi under setting [1] is 8.44.

For the molecule `CCc1cccc(NC(=O)c2cc(Cl)c([C@]3(C)CS(=O)(=O)C(C)(C)C(=N)N3)s2)n1` [Example 19], the negative-log Ki (pKi) under setting [1] was 6.87.

For `CC1(C)C(=N)N[C@](C)(c2c(F)c(F)cc(NC(=O)c3ccc(Cl)cn3)c2F)CS1(=O)=O` [Example 9ab], the pKi under setting [1] is 8.02.

`CC(C)[C@@]1(C)C(=N)N[C@](C)(c2cc(NC(=O)c3ccc(F)cn3)ccc2F)CS1(=O)=O` [Example 9ea-a]: the pKi under setting [1] was 7.50.

For the molecule `COc1cnc(C(=O)Nc2ccc(F)c([C@]3(C)CS(=O)(=O)[C@@](C)(C4CC4)C(=N)N3)c2)cn1` [Example 9cq-a], the negative logarithm of the Ki (pKi) under setting [1] is 7.88.

`COc1cnc(C(=O)Nc2ccc(F)c([C@]3(C)CS(=O)(=O)[C@@](C)(CC4CC4)C(=N)N3)c2)cn1` [Example 9dk-a]: the pKi under setting [1] is 8.15.

Consider `Cc1ccc(C(=O)Nc2ccc(F)c([C@]3(C)CS(=O)(=O)C(C)(C)C(=N)N3)c2)nc1` [Example 4], for which the negative logarithm of the Ki (pKi) under setting [1] is 8.10.

For `CC1(C)C(=N)N[C@](C)(c2cc(N)cc(Cl)c2F)CS1(=O)=O` [Example 2A-7], under “read-out: BACE1 inhibition, Ki”, the pKi is 5.51.

On to `CC(=O)Nc1ccc(F)c([C@]2(C)CS(=O)(=O)C(C)(C)C(=N)N2)c1` [Example 9an], for which the pKi under setting [1] was 5.84.

Consider `CC1(C)C(=N)N[C@](C)(c2cc(NC(=O)CC3CC3)cc(F)c2F)CS1(=O)=O` [Example 9bv], for which, under setting [1], the pKi was 5.87.

On to `CC1(C)C(=N)N[C@](C)(c2sc(C(=O)NCc3cnoc3)cc2Cl)CS1(=O)=O` [Example 22q], for which the negative-log Ki (pKi) under setting [1] was 6.45.

In the case of `CC1(C)C(=N)N[C@](C)(c2cc(NC(=O)C3CCOCC3)cc(F)c2F)CS1(=O)=O` [Example 9bb], the inhibition at 10 µM under setting [2] worked out at 48%.

Regarding `CCC(=O)Nc1ccc(F)c([C@]2(C)CS(=O)(=O)C(C)(C)C(=N)N2)c1` [Example 9as], the pKi under setting [1] is 6.28.

As to `CC1(C)C(=N)N[C@](C)(c2nc3ccc(-c4cccc(C#N)c4)cc3s2)CS1(=O)=O` [Example 29c], for the setting “read-out: BACE1 Ki”, the pKi was 5.62.

As to `CC1(C)C(=N)N[C@](C)(c2cc(NC(=O)c3ccc(F)cc3F)ccc2F)CS1(=O)=O` [Example 9f], under setting [1], the pKi is 7.96.

`C[C@@]1(c2sc(-c3cccc(C#N)c3)cc2F)CS(=O)(=O)[C@](C)(CC(F)(F)F)C(=N)N1` [Example 27bj-b]: the pKi (read-out: BACE1 Ki) was 6.08.

Consider `C[C@@]1(c2cccc(Br)c2)C(=N)N[C@](C)(c2ccc(F)cc2F)CS1(=O)=O` [Example 32g-b], for which the pKi (read-out: BACE1 Ki) is 5.05.

As to `C[C@@]1(c2cc(NC(=O)c3ccc(F)cn3)ccc2F)CS(=O)(=O)[C@@](C)(C2CCOCC2)C(=N)N1` [Example 9ds-a], under setting [1], the pKi is 8.46.
